Test results as given in patent publication US8404677B2, “Kinase inhibitors” (Genosco, priority 2009, dated 2013).
Counter-ions that a name gives are not always drawn. One block for each compound: values may come before it.

Key:
truncated human JAK2 = target: T1, truncated human JAK2 (Homo sapiens, UniProt O60674); experiment: Inhibition of enzymatic kinase activity (LANCE Ulight); type: biochemical
T1 construct: truncated human FAK, RET, FLT3, JAK2, and LRRK2 (CARNA BIOSCIENCES™); purchased Carna Biosciences
T1 sequence (O60674 826-1132 limits assumed): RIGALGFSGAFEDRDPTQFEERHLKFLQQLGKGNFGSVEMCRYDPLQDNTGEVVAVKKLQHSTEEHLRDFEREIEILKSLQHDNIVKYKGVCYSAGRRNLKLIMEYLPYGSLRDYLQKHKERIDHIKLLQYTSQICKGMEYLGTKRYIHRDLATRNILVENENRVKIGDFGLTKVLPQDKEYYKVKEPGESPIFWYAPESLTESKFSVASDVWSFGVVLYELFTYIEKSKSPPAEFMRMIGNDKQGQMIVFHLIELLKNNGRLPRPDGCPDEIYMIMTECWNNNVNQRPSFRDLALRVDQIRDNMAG
Method: (§1) Inhibition of Enzymatic SYK, ZAP70, PYK2, FAK, PIM1, RET, FLT3, JAK2 and LRRK2 Kinase Activity
(§2) Compounds of the invention were initially diluted to 10 mM in 100% DMSO (CALBIOCHEM™) for storage and made into kinase buffer solution to create a compound concentration ranging from 1 uM and 10 uM. Serial dilutions of compounds of the invention were dispensed into a 96-well plate (GREINER BIOSCIENCES™) at 6 μL each. Purified full-length human SYK, ZAP70, PIM1, PYK2 and truncated human FAK, RET, FLT3, JAK2, and LRRK2 (CARNA BIOSCIENCES™) were diluted in kinase buffer and added to the compound solutions and pre-incubated for 30 minutes at room temperature (1 hour for PYK2). […] The reaction mixture was incubated for 1 hour (2 hours for PYK2). Following the incubation, the stop solution made with EDTA, water, and Lance detection buffer ([…]™) was added (12 μL each) to stop phosphorylation.

truncated human FLT3 = target: T2, truncated human FLT3 (Homo sapiens, UniProt P36888); experiment: as above; type: biochemical
T2 construct: truncated human FAK, RET, FLT3, JAK2, and LRRK2 (CARNA BIOSCIENCES™); purchased Carna Biosciences
T2 sequence (P36888 564-993 limits assumed): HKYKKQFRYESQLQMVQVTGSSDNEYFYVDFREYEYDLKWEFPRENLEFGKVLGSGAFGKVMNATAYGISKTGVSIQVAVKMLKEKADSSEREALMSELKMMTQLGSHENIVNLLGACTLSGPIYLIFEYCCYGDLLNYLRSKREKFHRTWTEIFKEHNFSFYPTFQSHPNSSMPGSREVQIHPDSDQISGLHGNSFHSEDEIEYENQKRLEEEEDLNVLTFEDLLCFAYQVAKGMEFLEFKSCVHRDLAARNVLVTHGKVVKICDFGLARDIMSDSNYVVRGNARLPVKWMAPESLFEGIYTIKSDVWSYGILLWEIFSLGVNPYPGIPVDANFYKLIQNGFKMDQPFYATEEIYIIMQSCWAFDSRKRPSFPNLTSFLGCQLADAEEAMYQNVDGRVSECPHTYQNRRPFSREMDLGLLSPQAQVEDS
Method: as §1, §2

truncated human RET = target: T3, truncated human RET (Homo sapiens, UniProt P07949); experiment: as above; type: biochemical
T3 construct: truncated human FAK, RET, FLT3, JAK2, and LRRK2 (CARNA BIOSCIENCES™); purchased Carna Biosciences
T3 sequence (P07949 658-1114 limits assumed): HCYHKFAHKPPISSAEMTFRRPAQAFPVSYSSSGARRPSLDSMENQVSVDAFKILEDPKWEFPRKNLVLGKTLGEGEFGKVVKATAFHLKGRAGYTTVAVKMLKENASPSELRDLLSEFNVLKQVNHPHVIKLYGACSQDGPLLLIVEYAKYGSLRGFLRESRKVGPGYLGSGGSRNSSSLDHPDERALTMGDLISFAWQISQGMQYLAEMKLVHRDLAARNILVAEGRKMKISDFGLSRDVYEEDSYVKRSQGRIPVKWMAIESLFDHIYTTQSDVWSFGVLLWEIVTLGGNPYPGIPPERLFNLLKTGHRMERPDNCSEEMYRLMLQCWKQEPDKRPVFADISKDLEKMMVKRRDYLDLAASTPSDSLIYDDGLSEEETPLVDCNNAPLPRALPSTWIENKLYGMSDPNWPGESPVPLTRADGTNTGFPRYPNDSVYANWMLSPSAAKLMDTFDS
Method: as §1, §2

[1] = system: TNF-α release in THP-1 cells, IgG stimulation; experiment: SYK dependent TNF-α release assay (IgG stimulation); type: cell-based, human; conditions: for percentage inhibition of TNF-α release compared with R406: IgG stimulated release, 0.3 μM
Method: Compounds of the invention were tested for their TNF-α release effect on THP-1 cells. For SYK dependent TNF-α release assay (i.e., via IgG stimulation), THP-1 cells derived from human monocytic cells were obtained from the American Type Culture Collection (ATCC, Manassas, Va.). This cell line was maintained with an Roswell Park Memorial Institute (RPMI) medium (GIBCO™) containing 10 fetal bovine serum (FBS; GIBCO™) and 0.05 mM 2-mercaptoethanol. The THP-1 cells were seeded at 1×10^5 cells/100 μL/well into human IgG ([…], INVITROGEN™)-coated 96 well culture plate, and serially diluted compound was then added. After an 18-hour incubation period at 37° C., supernatants were collected for the determination of the TNF-α level by enzyme-linked immunosorbent assay (ELISA), and the remaining cells were subjected to an MTT (yellow tetrazolium salt) assay to determine the cytotoxic effects of compound.

truncated human FAK = target: T4, truncated human FAK (Homo sapiens, UniProt Q05397); experiment: Inhibition of enzymatic kinase activity (LANCE Ulight); type: biochemical; conditions: for IC50: read-out: FAK molar inhibition (IC50); for inhibition at 1 µM: read-out: FAK percentage inhibition
T4 construct: truncated human FAK, RET, FLT3, JAK2, and LRRK2 (CARNA BIOSCIENCES™); purchased Carna Biosciences
T4 sequence (Q05397 376-1052 limits assumed): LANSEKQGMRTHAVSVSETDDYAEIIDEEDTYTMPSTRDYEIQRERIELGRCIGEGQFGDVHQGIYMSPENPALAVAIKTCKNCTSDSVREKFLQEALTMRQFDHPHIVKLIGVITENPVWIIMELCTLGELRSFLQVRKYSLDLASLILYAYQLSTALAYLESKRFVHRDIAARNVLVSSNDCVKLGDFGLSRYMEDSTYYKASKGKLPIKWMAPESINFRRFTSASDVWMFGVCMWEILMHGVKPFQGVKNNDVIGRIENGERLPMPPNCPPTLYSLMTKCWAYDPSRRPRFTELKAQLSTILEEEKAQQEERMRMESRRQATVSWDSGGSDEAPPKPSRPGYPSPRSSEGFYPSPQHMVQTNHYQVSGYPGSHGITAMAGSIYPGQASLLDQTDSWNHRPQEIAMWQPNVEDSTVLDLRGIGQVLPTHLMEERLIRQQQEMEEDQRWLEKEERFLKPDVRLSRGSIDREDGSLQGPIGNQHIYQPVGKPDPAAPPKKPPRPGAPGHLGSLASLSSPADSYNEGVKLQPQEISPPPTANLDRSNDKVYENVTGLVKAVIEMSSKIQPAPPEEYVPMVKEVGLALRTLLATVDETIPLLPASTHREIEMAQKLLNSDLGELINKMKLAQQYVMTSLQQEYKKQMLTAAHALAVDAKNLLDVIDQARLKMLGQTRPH
Method: as §1, §2

SYK = SYK (Homo sapiens, UniProt P43405); experiment: as above; type: biochemical; design: Purified full-length human SYK, ZAP70, PIM1, PYK2; purchased Carna Biosciences; conditions: for IC50: read-out: SYK molar inhibition (IC50); for inhibition at 1 µM: read-out: SYK percentage inhibition
Method: as §1, §2

PYK2 = PYK2 (Homo sapiens, UniProt Q14289); experiment: as above; type: biochemical; design: Purified full-length human SYK, ZAP70, PIM1, PYK2; purchased Carna Biosciences; conditions: for IC50: read-out: PYK2 molar inhibition (IC50); for inhibition at 1 µM: read-out: PYK2 percentage inhibition
Chain of PYK2 (Q14289 whole entry): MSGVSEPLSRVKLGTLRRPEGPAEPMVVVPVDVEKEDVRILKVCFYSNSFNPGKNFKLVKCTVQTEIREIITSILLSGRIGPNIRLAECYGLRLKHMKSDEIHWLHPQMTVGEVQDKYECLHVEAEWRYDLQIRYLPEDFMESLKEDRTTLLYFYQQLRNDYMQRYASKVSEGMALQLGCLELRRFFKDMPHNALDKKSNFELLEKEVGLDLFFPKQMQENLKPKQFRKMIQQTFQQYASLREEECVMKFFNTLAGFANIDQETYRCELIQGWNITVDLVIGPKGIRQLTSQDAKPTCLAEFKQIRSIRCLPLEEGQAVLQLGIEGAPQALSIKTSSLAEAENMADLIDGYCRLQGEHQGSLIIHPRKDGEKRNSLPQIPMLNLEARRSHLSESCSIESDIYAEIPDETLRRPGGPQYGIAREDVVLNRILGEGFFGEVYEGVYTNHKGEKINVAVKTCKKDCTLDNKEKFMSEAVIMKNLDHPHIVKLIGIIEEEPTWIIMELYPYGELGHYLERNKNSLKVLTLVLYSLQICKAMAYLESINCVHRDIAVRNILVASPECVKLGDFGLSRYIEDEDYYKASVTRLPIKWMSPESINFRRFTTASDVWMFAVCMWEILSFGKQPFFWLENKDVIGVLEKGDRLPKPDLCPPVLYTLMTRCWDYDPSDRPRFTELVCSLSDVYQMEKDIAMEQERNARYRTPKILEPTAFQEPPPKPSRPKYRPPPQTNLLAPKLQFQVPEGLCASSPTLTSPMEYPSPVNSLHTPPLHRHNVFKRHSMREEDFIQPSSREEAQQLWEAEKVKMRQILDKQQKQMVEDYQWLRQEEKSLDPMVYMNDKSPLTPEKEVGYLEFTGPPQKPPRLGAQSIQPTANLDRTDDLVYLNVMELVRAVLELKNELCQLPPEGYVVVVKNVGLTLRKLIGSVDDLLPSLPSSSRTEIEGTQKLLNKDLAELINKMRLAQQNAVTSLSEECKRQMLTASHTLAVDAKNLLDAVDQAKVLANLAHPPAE
Method: as §1, §2

human ZAP70 = target: T5, human ZAP70 (Homo sapiens, UniProt P43403); experiment: as above; type: biochemical; conditions: at 1 μM concentration; for inhibition at 1 µM: read-out: ZAP70 percentage inhibition
T5 construct: Purified full-length human SYK, ZAP70, PIM1, PYK2; purchased Carna Biosciences
T5 sequence (P43403 1-619): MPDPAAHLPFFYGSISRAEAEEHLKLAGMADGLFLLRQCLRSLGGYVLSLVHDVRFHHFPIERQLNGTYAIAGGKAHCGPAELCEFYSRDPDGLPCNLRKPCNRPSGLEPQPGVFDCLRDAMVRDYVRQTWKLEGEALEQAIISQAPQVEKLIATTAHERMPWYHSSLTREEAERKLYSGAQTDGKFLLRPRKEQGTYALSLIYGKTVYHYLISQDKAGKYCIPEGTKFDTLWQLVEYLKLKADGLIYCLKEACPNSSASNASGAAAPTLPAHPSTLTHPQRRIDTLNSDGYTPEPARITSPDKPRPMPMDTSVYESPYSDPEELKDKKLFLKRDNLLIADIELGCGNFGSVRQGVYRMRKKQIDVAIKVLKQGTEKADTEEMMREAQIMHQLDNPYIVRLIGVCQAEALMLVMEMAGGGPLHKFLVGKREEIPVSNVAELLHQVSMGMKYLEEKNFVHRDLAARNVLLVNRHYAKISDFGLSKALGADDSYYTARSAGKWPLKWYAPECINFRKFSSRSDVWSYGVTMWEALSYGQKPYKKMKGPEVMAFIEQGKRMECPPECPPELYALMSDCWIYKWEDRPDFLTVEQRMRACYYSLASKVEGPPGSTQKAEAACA
Method: as §1, §2

human PIM1 = target: T6, human PIM1 (Homo sapiens, UniProt P11309); experiment: as above; type: biochemical; conditions: at 1 μM concentration
T6 construct: Purified full-length human SYK, ZAP70, PIM1, PYK2; purchased Carna Biosciences
T6 sequence (P11309 whole entry): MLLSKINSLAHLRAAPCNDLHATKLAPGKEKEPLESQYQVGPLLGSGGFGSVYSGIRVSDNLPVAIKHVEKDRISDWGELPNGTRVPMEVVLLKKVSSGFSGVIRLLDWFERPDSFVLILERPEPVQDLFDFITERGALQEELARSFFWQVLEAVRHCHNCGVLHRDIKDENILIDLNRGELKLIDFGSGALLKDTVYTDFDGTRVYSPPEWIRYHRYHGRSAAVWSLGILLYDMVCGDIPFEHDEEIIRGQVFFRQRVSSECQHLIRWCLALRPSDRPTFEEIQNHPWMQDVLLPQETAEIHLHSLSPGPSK
Method: as §1
as §2, with “phosphorylation. […] Substrate phosphorylation was a function of the 665 nm emission measured following the addition of the detection solution and 50 minutes of incubation.” for “phosphorylation.”

Compound: (2-((1R,2S)-2-aminocyclohexylamino)-4-(3-(trifluoromethyl)phenylamino)pyrido[4,3-d]pyrimidin-5(6H)-one with (2-((1S,2R)-2-aminocyclohexylamino)-4-(3-(trifluoromethyl)phenylamino)pyrido[4,3-d]pyrimidin-5(6H)-one [Compound 101]
ZAP70 percentage inhibition (human ZAP70): 45%
FAK percentage inhibition (truncated human FAK; at 1 μM concentration): 77%
SYK percentage inhibition (SYK; at 1 μM concentration): 90%
PYK2 percentage inhibition (PYK2; at 1 μM concentration): 85%
PIM1 percentage inhibition (human PIM1): 61%

Compound: COc1cc(Nc2nc(N3CCC(O)(CO)CC3)nc3cc[nH]c(=O)c23)cc(OC)c1 [Compound 2, 4-(3,5-dimethoxyphenylamino)-2-(4-hydroxy-4-(hydroxymethyl)piperidin-1-yl)pyrido[4,3d]pyrimidin-5(6H)-one]
IC50 (truncated human JAK2): 0.0738 µM
IC50 (truncated human FLT3): 0.368 µM
IC50 (truncated human RET): 0.363 µM

Compound: O=c1[nH]ccc2nc(N[C@H]3CCNC3)nc(Nc3ccc(Oc4ccccc4)cc3)c12 [Compound 125, (S)-4-(phenoxyphenylamino)-2-(pyrrolidin-3-ylamino)pyrido[4,3-d]pyrimidin-5(6H)-one hydrochloride]
IC50 (truncated human JAK2): 0.0249 µM
IC50 (truncated human FLT3): 0.0006 µM
IC50 (truncated human RET): 0.0034 µM

Compound: COc1cc(Nc2nc(N3CCC(O)CC3)nc3cc[nH]c(=O)c23)cc(OC)c1 [Compound 1, 4-(3,5-dimethoxyphenylamino)-2-(4-hydroxypiperidin-1-yl)pyrido[4,3,-d]pyrimidin-6(6H)-one]
IC50 (truncated human JAK2): 0.0594 µM
IC50 (truncated human FLT3): 0.242 µM
IC50 (truncated human RET): 0.2 µM

Compound: NC1CCC(Nc2nc(Nc3cccc(C(F)(F)F)c3)c3c(=O)[nH]ccc3n2)CC1 [Compound 9, 2-((1R,4R)-4-aminocyclohexylamino)-4-(3-(trifluoromethyl)phenylamino)pyrido[4,3-d]pyrimidin-5(6H)-one]
inhibition at 1 µM (human ZAP70): 32%
inhibition at 1 µM (truncated human FAK; at 1 μM concentration): 83%
inhibition at 1 µM (SYK; at 1 μM concentration): 84%
inhibition at 1 µM (PYK2; at 1 μM concentration): 89%
inhibition at 1 µM (human PIM1; read-out: PIM1 percentage inhibition): 64%

Compound: N[C@@H]1CCCC[C@H]1Nc1nc(Nc2cc(C(F)(F)F)cc(C(F)(F)F)c2)c2c(=O)[nH]ccc2n1 [Compound 100, 2-((1R,2R)-2-aminocyclohexylamino)-4-(3,5-bis(trifluoromethyl)phenylamino)pyrido[4,3-d]pyrimidin-5(6H)-one]
inhibition at 1 µM (human ZAP70): 9%
inhibition at 1 µM (truncated human FAK; at 1 μM concentration): 21.9%
inhibition at 1 µM (SYK; at 1 μM concentration): 37.7%
inhibition at 1 µM (PYK2; at 1 μM concentration): 88.4%

Compound: O=c1[nH]ccc2nc(N3CCC(O)CC3)nc(Nc3ccc(N4CCOCC4)cc3)c12 [Compound 134, 2-(4-hydroxypiperidin-1-yl)-4-(4-morpholinophenylamino)pyrido[4,3-d]pyrimidin-5(6H)-one]
IC50 (truncated human JAK2): 0.0037 µM
IC50 (truncated human RET): 0.0073 µM

Compound: COc1cc(Nc2ncc(F)c(Nc3ccc4c(n3)NC(=O)C(C)(C)O4)n2)cc(OC)c1OC [Compound R406, reference compound]
Inhibition of TNF-α Release (percentage inhibition) ([1]; IgG stimulation, At 0.3 μM, THP-1): 49.9%
Inhibition of TNF-α Release (percentage inhibition) ([1]; IgG stimulation, At 1 μM, THP-1): 87.4%

More lines, main results first:

IC50 (truncated human JAK2): 0.151 µM
IC50 (truncated human FLT3): 0.151 µM
IC50 (truncated human RET): 0.0327 µM
Compound: COc1cc(Nc2nc(N3CCC(O)CC3)nc3cc[nH]c(=O)c23)cc(OC)c1OC [Compound 149, 2-(4-hydroxypiperidin-1-yl)-4-(3,4,5-triemethoxyphenylamino)pyrido[4,3d]pyrimidin-5(6H)-one]

IC50 (truncated human FAK): 0.217 µM
IC50 (SYK): 0.0082 µM
IC50 (PYK2): 0.0902 µM
Compound: COc1ccc(Nc2nc(N3CCC(CO)CC3)nc3cc[nH]c(=O)c23)cc1C(F)(F)F [Compound 151, 2-(4-(hydroxymethyl)piperidin-1-yl)-4-(4-methoxy-3-(trifluoromethyl)phenylamino)pyrido[4,3d]pyrimidin-5(6H)-one]
percentage inhibition of TNF-α release compared with R406 [1]: greater than those exhibited by R406

IC50 (truncated human FAK): 0.337 µM
IC50 (SYK): 0.0027 µM
IC50 (PYK2): 0.0843 µM
Compound: COc1ccc(Nc2nc(N3CCC(O)(CO)CC3)nc3cc[nH]c(=O)c23)cc1C(F)(F)F [Compound 152, 2-(4-hydroxy-4-(hydroxymethyl)piperidin-1-yl)-4-(4-methoxy-3-(trifluoromethyl)phenylamino)pyrido[4,3-d]pyrimidin-5(6H)-one]
inhibition at 0.3 µM ([1]; Homo sapiens, IgG stimulation, At 0.3 μM, THP-1, read-out: Inhibition of TNF-α Release (percentage inhibition)): 80.5%
inhibition at 1 µM ([1]; Homo sapiens, IgG stimulation, At 1 μM, THP-1, read-out: Inhibition of TNF-α Release (percentage inhibition)): 82.9%
percentage inhibition of TNF-α release compared with R406 [1]: higher percentage inhibition

IC50 (truncated human JAK2): 0.0653 µM
IC50 (truncated human FLT3): 0.106 µM
IC50 (truncated human RET): 0.115 µM
Compound: COc1ccc(Nc2nc(N3CCC(O)CC3)nc3cc[nH]c(=O)c23)cc1C(F)(F)F [Compound 150, 2-(4-hydroxypiperidin-1-yl)-4-(4-methoxy-3-(trifluoromethyl)phenylamino)pyrido[4,3d]pyrimidin-5(6H)-one]
